From paper PMC4391747 (Science translational medicine, 2012)

Legend:
[1] = rat, in vivo; cited from earlier work
[2] = Solubility of MIV-150 in ring polymer; assay type: physicochemical

Solubility of MIV-150 in EVA-40 ([2]; DSC): partially soluble
Solubility of MIV-150 in silicone ([2]; DSC of formulated ring segments and release studies with micronized MIV-150): insoluble
Compound: CCC(=O)c1ccc(F)c([C@@H]2C[C@@H]2NC(=O)Nc2ccc(C#N)cn2)c1O [MIV-150]
Time within which absorbed MIV-150 is cleared [1]: ≤ 12 h
